Row | SMILES | melting point [°C]
1 | COC(=O)n1nc2nc3n(c(=O)c2c1N)CCS3 | 200 to 203
2 | CC(C)(C)N1CC(=O)Nc2cccc(Cl)c21 | 198
3 | CC(C)(C)c1ccc2[nH]c(=O)c(-c3nnn[nH]3)cc2c1 | 280 to 286
4 | CC(CCCO)C1CCC2C3CC=C4CC(OC5CCCCO5)CCC4(C)C3CCC12C (stereo not drawn) | 130 to 131
5 | CCn1cc(C(=O)O)c(=O)c2cc(F)c(N3CCNCC3)c(OC)c21 | 169
6 | CCCCCCCCCCCCCCC#Cc1cccc(C=O)n1 | 38.5 to 40
7 | Cn1c(CON)ncc(O)c1=O | 106
8 | Cc1c(Oc2nccs2)ccc(C(=O)O)c1Cl | 150 to 152
9 | CCOc1c(-c2ccc(N(C)C)c(O)c2)c(=O)c1=O | > 182
10 | Oc1ccc(-c2nc(Br)c[nH]2)cc1Cl | 225 to 227
11 | CC(=O)c1c(C)[nH]c(CC(C)C)c1C | 150 to 152
12 | CCCC(=O)OCC(CO)CCn1cnc2cnc(N)nc21 (stereo not drawn) | 125 to 127
13 | Cc1cc(C)cc(S(=O)(=O)n2c(COC(C)(C)C(=O)O)cc3nc(Cl)ccc32)c1 | 154
14 | CNC(=O)Oc1ccc2onc(NCCN3CCOCC3)c2c1 | 135 to 136
15 | Cc1cc2c(Oc3cccc(C(F)(F)F)c3)nc(OCC(F)(F)F)nc2s1 | 124 to 125
16 | COc1cc(C)nc(-c2ccc(CBr)cc2)n1 | 98 to 99
17 | COc1cc2c(Cl)c(C#N)cnc2cc1OS(=O)(=O)C(F)(F)F | 112 to 113
18 | CC(=NO)C(C)(C)NCC(O)CNC(C)(C)C(CCn1ccnc1[N+](=O)[O-])=NO (stereo not drawn) | 62 to 64
19 | CC(=O)C(C)C(=O)N(c1ccc(Cl)cc1)C(C)C (stereo not drawn) | 77 to 79
20 | O=C(Nc1cc(Cl)cc(Cl)c1)c1ccc(Cl)cc1O | 255 to 256
21 | CNc1cc(Oc2ccc(Cl)cc2Cn2cncn2)ccc1[N+](=O)[O-] | 150

Row | SMILES | melting point [°C]
22 | CCC1CC(=O)N(CCc2ccc(NC(=O)c3cnccn3)cc2)N=C1c1ccc(OC)c(OC)c1 (stereo not drawn) | 202
23 | Oc1ccc(-c2nc3ccc(O)cc3o2)c(O)c1 | 293 to 296
24 | N#Cc1cc(=O)c2ccc(CBr)cc2o1 | 162 to 166
25 | CC(C)CN1N(C)Nc2c3ncnc-3c3ccncc3n21 | 157 to 158
26 | O=C1CSCC(=O)NCCOCCN1 | 186 to 188
27 | Cc1cccc2c(-c3ccc(Br)cc3)nccc12 | 126 to 128
28 | CC(O)(Cc1ccc(C#N)cc1)Cc1ccc(C#N)cc1 | 147 to 148
29 | CC1(C)CC(NC(=O)CCC(C)(c2ccc(O)c(C(C)(C)C)c2)c2ccc(O)c(C(C)(C)C)c2)CC(C)(C)N1 | 110
30 | COC(=O)c1cc(C(=O)O)nn1C | 175
31 | N#Cc1cc(C(=O)O)cnc1Br | 170 to 172
32 | CC1OC1COc1ccc(C(=O)OC(C)(C)C)cc1 (stereo not drawn) | 47 to 48
33 | O=CCC1Cc2ccc(Cl)cc2C1=O (racemic) | 80
34 | CS(=O)C=C1C(C)(C)CCC1(C)C (stereo not drawn) | 74.7
35 | COc1ccc(OC)c(-c2cc3c(Nc4cccc(Cl)c4)ncnc3[nH]2)c1 | 267 to 268
36 | CCC(O)(C#CC(O)c1ccc(SC)cc1)CC (stereo not drawn) | 64 to 65
37 | CS(=O)(=O)Oc1ccc(-c2c3ccccc3c(Cl)c3sc4ccccc4c23)cc1 | 155 to 158
38 | Cc1c(Cl)c(Cl)c(Cl)c(Cl)c1C=O | 187 to 194
39 | CCOP(=O)(/C=C/c1cn(-c2ccccc2)nc1OCc1ccc(OCc2nc(-c3ccco3)oc2C)c(C(=O)OC)c1)OCC | 92 to 93
40 | CC(=O)OC1CSC(Oc2ccc(-c3cncc(C)c3)nc2)C(OC(C)=O)C1OC(C)=O (stereo not drawn) | 189 to 190
41 | COC(=O)[C@H](CSC(=O)N(C)C)NC(C)=O | 119 to 121
42 | COC(=O)C(=Cc1c[nH]c2cc(Cl)ccc12)[N+](=O)[O-] | 159 to 160

Continued, values first:

Row | melting point [°C] | SMILES
43 | 140 to 142 | Cc1c(C(=O)c2ccccc2)c(NC(=O)CNO)cn1C
44 | 308 | Sc1ncc(-c2ccc(Cl)cc2)[nH]1
45 | 142 to 143 | CSCc1cn(C)c2ccc(C)cc2c1=O
46 | 205 to 207 | CC1Cc2c(c3cccnc3n(-c3cccc(C(F)(F)F)c3)c2=O)O1 (stereo not drawn)
47 | 129 to 130 | O=c1[nH]c2ccc(NCCCc3ccccc3)cc2o1
48 | 71 to 74 | CC1CCC(=O)CC1S(=O)(=O)c1ccccc1 (stereo not drawn)
49 | 167 to 169 | O=C(O)[C@H](Cc1ccccc1)NS(=O)(=O)c1ccc(N2CCC(c3ccccc3)CC2)cc1
50 | 182 | CCOc1ccc(C(=O)N(C)Cc2cccc(-c3ccc(CC4SC(=O)NC4=O)cc3)c2)cc1 (stereo not drawn)
51 | 100 to 103 | BrCc1noc2c1ccc1ccccc12
52 | 88 to 90 | CC(C)(C)OC(=O)N1CCN(c2ccc(Br)cn2)CC1
53 | 93 | O=C(O)CCCCCCCCCCc1ccc(Cl)cc1
54 | 160 to 162 | CCCCc1oc2ccccc2c1C(=O)c1ccc2c(Br)c(OCc3nnn[nH]3)ccc2c1
55 | 110 to 112 | CC(C)(CCl)C(=O)N(O)Cc1ccccc1F
56 | 159 to 162 | O=C(Nc1cnn2ccccc12)C1CC1
57 | 270 | CC1Nc2ccc(NC(=O)c3ccc(-c4ccccc4)cc3)cc2N1C (stereo not drawn)
58 | 68 | COc1nc(NCCCN2CCOCC2)nc(OC)c1NC(=O)c1csc(Oc2cccc(C(C)(C)C)c2)n1
59 | 148 to 150 | O=C(c1cccs1)c1cccnc1N1CCCC1=O
60 | 166 to 179 | CCCCNS(=O)(=O)c1ccc(N2CCC(NC[C@H](O)COc3cccc4[nH]c5ccccc5c34)CC2)cc1
61 | 182 | COc1cc(N)c(Cl)cc1C(=O)Nc1cc(OC)c(C(=O)N[C@H]2CCN(CCCOc3ccc(F)cc3)C[C@H]2OC)cc1Cl (relative stereo)
62 | 80 | CCOc1ccc(C2=NC[C@@H](OC(=O)Nc3ccccc3)[C@H](c3ccccc3)O2)cc1 (racemic)
63 | 234 to 236 | Cc1oc2c(-c3ccc(F)cc3)c(-c3ccc(S(C)(=O)=O)cc3)nn2c1-c1ccccc1

Row | melting point [°C] | SMILES
64 | 218 to 220 | CCOc1ccc(-c2nc(-c3cccc(C(N)=NO)n3)cs2)cc1OCC
65 | 159 to 160 | C[C@@H]1C[C@H](C)CN(C(=O)[C@@H]2Cc3ccccc3N2c2cccnn2)C1
66 | 76 | COC(=O)C1=CC(=O)CCC1c1ccccc1OC (racemic)
67 | 113 to 114 | CC(C)c1nn(-c2ccc(C(F)(F)F)nn2)cc1CCCO
68 | 50 to 55 | S=C=NCCCN1CCC(c2ccccc2)CC1
69 | 105 to 107 | Cc1cc(S(=O)(=O)N(C)CC(O)(CCl)c2ccccc2)ccc1Cl (stereo not drawn)
70 | 143 to 145 | Cc1ccc(N2CCN(CCCc3ccc(C4CCC(=O)N4)cc3)CC2)cc1 (stereo not drawn)
71 | 77 | COc1ccc(Nc2nc(NCCN)nc(NC3CCCCCC3)n2)cc1Cl
72 | 133 to 135 | CN1C(=O)COc2cc(S(=O)Cc3ccccc3)ccc21 (stereo not drawn)
73 | > 230 | O=C1Cc2cccc(Oc3c(Cl)cccc3Cl)c2N1
74 | 35 to 38 | COc1ccc(F)cc1OCCCl
75 | 111 to 114 | CN1CCC(c2c[nH]c3ccc(NC(=O)c4ccccc4)nc23)CC1
76 | 138 to 139 | Cc1noc(NC(=O)NCCC2CCN(Cc3ccccc3)CC2)n1
77 | 142 | CCN1C(=O)CN(c2ccccc2)C1=O
78 | 125 to 126 | CCOC(=O)C1=CC2(CCC1S(=O)(=O)Nc1ccc(F)cc1Cl)CC2 (stereo not drawn)
79 | 74 to 76 | CCCCC[C@@H](COc1ccc(C(=O)O)cc1)c1ccc2c(c1)C(C)(C)CCC2(C)C
80 | 148 | O=C(Nc1ccc2ccc(Oc3ccc(Cl)cc3)nc2n1)c1ccccc1
81 | 184 to 186 | CN1CCOc2cc(O)c(C3(O)C(=O)N(Cc4ccc(C(F)(F)F)o4)c4ccccc43)cc21 (stereo not drawn)
82 | 168 | O=C(COc1cc(-c2ccccc2)nc2cccc(Cl)c12)N1CCOCC1
83 | 178 to 179 | O=C(O)CO[C@@H]1COc2nc([N+](=O)[O-])cn2C1
84 | 214 to 215 | Oc1c(-c2ccccc2)sc2c(C(O)c3ccccc3)nccc12 (stereo not drawn)

Row | melting point [°C] | SMILES
85 | 247 to 252 | Cc1ccc(C(=O)C2=C(O)C(=O)N(c3ncc(S(=O)(=O)N4CCOCC4)s3)C2c2ccc(C(C)C)cc2)cc1 (stereo not drawn)
86 | 159 to 162 | COc1ccc(Cl)c(Cc2c(Cl)nc(N3CCOCC3)nc2NS(=O)(=O)c2ccc(C(C)(C)C)cc2)c1
87 | 218 to 221 | Cc1nc(N2CCN(CCCc3ccccc3)C2=O)sc1C(=O)O
88 | 148 to 149 | Cc1c(NC(=O)c2ccc(OC[C@@H]3CCCO3)cc2F)ccc2cc(CNCC(C)(C)O)[nH]c12
89 | 174 to 175 | CC(C)Cc1nc(Cc2ccccc2)c2c(c1O)COC2
90 | 136 to 138 | CCCc1nn(C)c2c(=O)n(CCNc3ccc(OC(C)(C)C(=O)O)cc3)c(CC)nc12
91 | 140 | O=S1(=O)N(CCCN2CC=C(c3ccccc3)CC2)c2cccc3cccc(c23)N1CCCN1CC=C(c2ccccc2)CC1
92 | 176 to 178 | CCOC(=O)c1cc2c(nc(C)n2C)c2c1CCC(OC)(c1ccccc1)O2 (stereo not drawn)
93 | 120 to 123 | CC(C)(C)C(=O)c1ccc(C(=O)N[C@@H](Cc2ccccc2)C(N)=O)cc1
94 | 120 to 125 | CCOc1c(Nc2ccncc2)c(=O)c1=O
95 | 51 to 53 | CN(c1ccc(CCNCC(O)COc2ccc(OCc3ccccc3)cc2)cc1)C1SC(=O)NC1=O (stereo not drawn)
96 | 115 to 116 | Cn1c(=O)n(CC2CO2)n(CC2CO2)c1=O (stereo not drawn)
97 | 147 to 148 | Cc1oc(-c2ccccc2)nc1COc1ccc(/C=C/C=O)cn1
98 | 138 to 142 | O=S(=O)(NC1CCC(O)CC1)c1ccc(Cl)cc1 (stereo not drawn)
99 | 200 to 203 | O=C(CN1CCC(CCc2ccccc2)CC1)Nc1ccc2c(c1)OCC(=O)N2
100 | 158 to 161 | O=C(c1ccc2c(c1)C(=O)N1CCC[C@H]1CO2)N1CCOCC1
101 | 157 to 158 | CCC1C(=O)N(CC)CCc2c1ccc(Nc1ncc(Cl)c(Nc3ccccc3C(=O)NC)n1)c2OC (stereo not drawn)
102 | 109 to 112 | O=C(O)CCC(NC(=O)c1cccc(-c2ccccc2OC2OC(CO)C(O)C(O)C2O)c1)C(=O)O (stereo not drawn)
103 | 112 to 114 | CCCCn1cnc2c(OCc3cccs3)nc(Nc3ccc(OCC)nc3)nc21
